These results are taken from patent publication US20260166182A1, “CYANINE-BASED FLUOROPHORES” (The General Hospital Corporation, priority 2022, published 2026).

“Also recorded” adds a separate entry of the source.

The subject of one data set is LLC tumor. Nature of the data set: Tumor histopathology with NIR fluorescence microscopy of resected LLC tumors. The data set is classed as in vivo, mouse. The following applies: histological NIR images. As for the experimental part: Tumor histopathology evaluation: […] After rinsing with PBS, the fixed sections were counterstained with nuclear fast red, dehydrated by ethanol, transferred into xylene, and finally mounted according to the standard protocol. To determine the tissue distribution of the NIR fluorophore, the dissected tissues were embedded in Tissue-Tek optimum cutting temperature compound (Sakura Finetek, Torrance, CA) without a pre-fixation step. The tissue block was frozen at −80° C. Frozen sections were cut at a thickness of 10 or 50 μm by a cryostat (Leica, Germany). Then, the tissue sections were stained with hematoxylin and eosin (H&E). The BioTek Cytation 5 (Winooski, VT) was used for pathological fluorescence imaging and observation.

Data set [1] in a line: Photostability under xenon lamp irradiation. The data set is classed as physicochemical. The following applies: ethanol, xenon lamp 150 W, end of 2 h. How it is done:
Optical Study, Photostability, Physicochemical Properties, and DFT Calculation: 1 mM stock solution in DMSO of the synthesized fluorophores was prepared before starting any spectral measurement. Optical properties for the synthesized fluorophores were measured in four different solvents (EtOH, DMSO, HEPES, and PBS). Absorbance spectra were measured in a Varian Cary 50 absorbance spectrophotometer (190-1100 nm). Fluorescence emission and photostability were measured and emission spectra were recorded on a Shimadzu RF-5301PC spectrofluorometer. Physicochemical properties (Log D, molecular mass, TPSA, H bond D/A, polarizability, molecular volume, and rotatable bonds) were predicted by ChemAxon (JChem plugin). Theoretical calculations of frontier molecular orbitals (FMOs) for the optimized structures of selected fluorophores were calculated based on DFT calculations at the B3LYP/6-311G(d,p) level.
In consideration of theranostic (therapeutics and diagnostic) applications, NIR cyanine fluorophores are synthesized for fluorescence imaging, photodynamic therapy (PDT), photothermal therapy (PTT), optoacoustic imaging, and cancer immunotherapy. One of the approaches before using these fluorophores in those applications is to study their biodistribution and clearance pattern in vivo. […] The power density of 150 W is much higher than the required power for fluorescence imaging, considering that the time it takes for a fluorophore to clear from the background and accumulate in sufficient quantities in the targeted tissues is unknown. […] By considering this, an aliquot of the stock solution (1 mM in DMSO) was diluted in ethanol, and the fluorescence intensity was measured at the excitation wavelength same as their absorption maxima (nm). Photodegradation rates were measured every 20 min intervals for the selected fluorophores based on the % reduced fluorescence intensity starting from 100%. […] The data were collected in every 20 min intervals under continuous irradiation with a xenon lamp at 150 W for 2 h and presented based on the % reduced fluorescence intensity starting from 100%. […]

Data set [2] has as its system lung carcinoma (LLC cell line). The data set is described as follows: NIR-II fluorescence imaging of subcutaneous LLC tumor-bearing C57BL/6 mice. The data set is classed as in vivo, mouse. The following applies: for tumor targeting / tumor signal: intravenous, NIR-II imaging until 48 h post-injection. The source says:
General NIR-II fluorescence imaging: A 640×512-pixel InGaAs camera (Ninox640, Raptor Photonics) and macro zoom lens (0-10×; Navitar Zoom 7000 with SWIR coating) along with 900, 1070, 1100, and 1200 nm long-pass (LP) filters from either Thorlab or Edmund optics were used to collect the NIR-II signal. InGaAs camera played a role as an open-air imaging system along with the support of the FLARE system. An 808 nm fiber-coupled diode laser ([…] at the sample) was used as an excitation source. Data acquisition was done using in-house developed software. […] Mice were imaged with intact skin using InGaAs camera. At least 3 mice were analyzed for each sample. Tumor-bearing mouse models: Animals were housed in an AAALAC-certified facility and were studied under the protocols approved by the MGH IACUC (2016N000136). Mice were maintained under anesthesia with isoflurane and oxygen during the experiment. To establish the various tumor-bearing mouse models including lung carcinoma, pancreatic ductal adenocarcinoma (PDAC), and triple negative breast adenocarcinoma, eight-week-old C57BL/6 mice (Taconic Farms, Germantown, NY) were subcutaneously injected with 2×10^5 LLC, Pan02, and E0771 cells suspended in DMEM/Matrigel (100 μL, 50 v/v %) in the flank region, respectively. Female C57BL/6 mice were used for the breast cancer (E0771) model, otherwise male mice were used. […] Statistical analysis: The fluorescence and background intensities of a region of interest over each tissue were quantified using customized imaging software and ImageJ v1.48 (National Institutes of Health, Bethesda, MD). The signal-to-background ratio (SBR) was calculated as SBR=fluorescence/background, where background was the fluorescence intensity of muscle. Data were reported as mean±s.e.m. with a minimum of three biological replicates. Student's t-test statistical analysis was performed to evaluate the significance of the experimental data. The differences among groups were determined using one-way ANOVA analysis to assess the statistical differences among more than two groups. […] The data was indicated with *p<0.05, ** p<0.01, *** p<0.001, and **** p<0.0001.

Data set [3] concerns immune cells from bone marrow and tumor tissues. The data set is described as follows: Flow cytometry analysis of fluorophore-targeted immune cells from bone marrow and tumor. The data set is classed as in vivo, mouse. As to conditions: 48 h post-injection. As for the experimental part: Flow cytometry analysis: Bone marrow tissue was mechanically dissociated and digested with collagenase D (175 unit/mL, Roche) and DNase I (100 unit/mL, Roche) followed by EDTA (2 mM, Invitrogen). Erythrocytes were removed using RBC Lysis Buffer (Invitrogen). Tumor tissue was mechanically dissociated and digested with collagenase I (175 unit/mL, Thermo-fisher), Collagenase IV (250 unit/mL, Thermo-fisher, 1700019), and DNase I (100 unit/mL) followed by EDTA ([…]). Immune cells were isolated from cell suspensions of the bone marrow or tumor tissue using Ficoll® Paque Plus (GE Healthcare). Isolated cells were stained with anti-mouse F4/80 (BM8, Biolegend, 123131), anti-mouse Ly-6G (1A8, Biolegend, 127639), anti-mouse Ly-6C(HK1.4, Biolegend, 128011), anti-mouse CD11c (N418, Biolegend, 117313), anti-mouse CD103 (2E7, Biolegend, 121425), anti-mouse I-A/I-E (M5/114.15.2 Biolegend, 107611), anti-mouse/human CD11b (M1/70, Biolegend, 101254) and anti-mouse CD45 antibodies (30-F11, Biolegend, 103105) conjugated to fluorophores. Isolated cells were stained with Live/dead®-Aqua (Life Technologies) to distinguish live cells. Stained cells were fixed using 1% paraformaldehyde prior to analysis. Data acquisition was performed on a Fortessa cytometer (BD) followed by analysis on FlowJo software (Tree Star).

For data set [4] the following is noted: cited from earlier work.
Data set [5] deals with serum proteins, mostly albumin. The data set is described as follows: Serum protein binding kinetics (size exclusion column). The data set is classed as in vitro ADME. As to conditions: until 24 h incubation. How it is done: FIG. 15 Reaction kinetics of SH1, ICG, and IR-780 to serum proteins, mostly albumin. 50 nmol of each dye was mixed with 1 ml of FBS/PBS (pH 7.4) 50/50 v/v %, incubated at 37° C., and analyzed using a BioResolve size exclusion column (200 Å, 2.5 μm, 7.8×300 mm). The binding percentage was calculated by dividing by absorbance of bound dye at 24 h assuming the dyes can bind in maximum capacity in the protein at 24 h.

The subject of data set [6] is serum proteins, mostly albumin. As to conditions: cited from earlier work.

In the case of `CC1(C)C(/C=C/C=C/C=C/C=C2\N(CCCCS(=O)(=O)O)c3ccc4ccccc4c3C2(C)C)=[N+](CCCCS(=O)(=O)[O-])c2ccc3ccccc3c21` [ICG, indocyanine green, reference compound], in the data set with LLC tumor, the “fluorescence signal location in resected tumor” value is listed as “barely present in the tumor”. The “photodegradation (% reduced fluorescence intensity)” value in data set [1] came out at 41%. Also, the “tumor targeting / tumor signal” value in data set [2] is on record as “did not show good tumor targeting”. In addition, the clearance result in data set [2] (mouse, in vivo) was “fast hepatobiliary clearance”. Further, the “positively stained cells across distinct immune cell populations” value in data set [3] (bone marrow) is less than 8%; in data set [3] (tumor), less than 14%. In addition, the “reference quantum yield ΦICG” value in data set [4] is on record as 0.043. For the same compound, the “reaction with serum proteins” value in data set [5] is on record as “did not show any reactions with proteins until 24 h incubation”.
With `CCCN1/C(=C/C=C2\CCCC(/C=C/C3=[N+](CCC)c4ccccc4C3(C)C)=C2Cl)C(C)(C)c2ccccc21.[I-]` [IR-780], the “fluorescence signal location in resected tumor” value in the data set on LLC tumor is on record as “only present in the peritumoral region”. Also, the “time to bind half of the maximum” value in data set [6] is recorded as roughly 2 min. The “nonspecific background signal in biodistribution” value in data set [2] (4 h post-injection) is “High nonspecific background signal”. Moreover, in data set [2] (48 h post-injection), the “circulation in the blood stream” value is “strong signals in the blood plasma; also recorded: circulating in the blood stream” and the “tumor signal intensity after skin removal” value is listed as “significantly decreased after skin removal”. Besides, the “tumor targeting / tumor signal” value in data set [2] is “accumulating in tumors at early time points around 4 h post-injection”. The “positively stained cells across distinct immune cell populations” value in data set [3] (bone marrow) was less than 22%. In data set [3] (tumor), the “positively stained cells across distinct immune cell populations” value is reported as less than 7%.
